# Measurements from ChEMBL document CHEMBL1201862, “PubChem BioAssay data set” (2004).
# The source made the active and inactive calls.
# Key:
# Cytochrome P450 2C9 = Cytochrome P450 2C9 (Homo sapiens, UniProt P11712)
# [1] = NIH3T3 cell viability loss – ATP luminescence, mouse fibroblasts, counter-screen, dose response (AID 2010); type: functional, cell-based;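 also: cells exposed to compound for about 90 hours before reading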
# [2] = Trypanosoma cruzi growth suppression in host cells – NIH3T3 host cells, beta-gal luminescence, confirmation (AID 2044); type: functional, cell-based;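 also: intracellular parasites grown in NIH/3T3 mouse fibroblasts as host cells; luminescent beta-galactosidase reporter signal from transgenic T. cruzi replicating inside host cells; inhibitors lower the luminescence signal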
# Cytochrome P450 3A4 = Cytochrome P450 3A4 (Homo sapiens, UniProt P08684);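 also: CYP3A4 tested as one member of a cytochrome P450 panel screen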
# Sequence of Cytochrome P450 3A4 (P08684 whole entry): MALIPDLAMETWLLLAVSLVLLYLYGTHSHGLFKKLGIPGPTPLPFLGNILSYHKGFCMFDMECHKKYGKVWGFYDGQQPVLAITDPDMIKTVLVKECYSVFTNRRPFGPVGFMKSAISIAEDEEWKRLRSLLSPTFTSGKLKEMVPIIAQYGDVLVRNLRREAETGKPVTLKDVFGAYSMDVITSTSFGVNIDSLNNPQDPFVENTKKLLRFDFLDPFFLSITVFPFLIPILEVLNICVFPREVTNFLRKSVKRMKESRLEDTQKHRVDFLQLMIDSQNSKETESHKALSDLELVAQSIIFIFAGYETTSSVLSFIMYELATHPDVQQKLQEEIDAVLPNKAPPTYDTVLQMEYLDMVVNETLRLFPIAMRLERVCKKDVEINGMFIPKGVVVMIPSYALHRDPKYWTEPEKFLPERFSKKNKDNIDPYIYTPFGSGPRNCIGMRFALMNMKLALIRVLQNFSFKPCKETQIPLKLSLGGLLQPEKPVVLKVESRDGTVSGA
# Cytochrome P450 2C19 = Cytochrome P450 2C19 (Homo sapiens, UniProt P33261); assay: Cytochrome panel assay with activity outcomes. Panel member name: p450-cyp2c19 Compounds with AC50 equal or less than 10 uM are considered active; type: functional
# Sequence of Cytochrome P450 2C19 (P33261 whole entry): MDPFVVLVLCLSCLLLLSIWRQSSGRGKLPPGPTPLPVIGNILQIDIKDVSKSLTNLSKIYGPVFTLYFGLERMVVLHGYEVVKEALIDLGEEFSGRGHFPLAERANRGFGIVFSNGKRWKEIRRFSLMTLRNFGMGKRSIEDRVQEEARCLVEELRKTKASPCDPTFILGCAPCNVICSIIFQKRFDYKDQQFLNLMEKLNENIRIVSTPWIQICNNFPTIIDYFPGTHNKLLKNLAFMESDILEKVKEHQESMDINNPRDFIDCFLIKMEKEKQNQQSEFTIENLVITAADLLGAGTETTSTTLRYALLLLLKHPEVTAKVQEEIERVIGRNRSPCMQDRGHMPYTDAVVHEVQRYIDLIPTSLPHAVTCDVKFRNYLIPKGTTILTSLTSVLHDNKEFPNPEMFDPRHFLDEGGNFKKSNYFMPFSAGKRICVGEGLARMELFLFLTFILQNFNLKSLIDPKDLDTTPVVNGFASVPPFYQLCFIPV
# [3] = system: Streptococcus sp. 'group A'; assay: Streptococcus pyogenes SK(-)GAS viability under kanamycin – luminescence, BacTiterGlo, confirmation, counter-screen for streptokinase expression inhibitor project, dose response (AID 1900); type: functional, organism-based; details: Streptococcus sp. 'group A'
# Streptococcus = assay: GAS UMAA2166 growth inhibition – luminescence, BacTiterGlo, counter-screen for streptokinase expression inhibitor project, dose response (AID 1915); type: functional, organism-based; details: Streptococcus;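 also: potency for reduction of bacterial viability or growth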
# H4 = assay: Luminescence Cell-Based Dose Response HTS to Identify Activators of 5'UTR Stem-Loop Driven Prion Protein mRNA Translation in H4 Neuroglioblastoma Cells. [Related pubchem assays: 1829 (Project Summary), 1814 (Primary HTS)]; type: functional; details: Homo sapiens
# [4] = target: T1, Rac GTPase-activating protein 1 (Homo sapiens, UniProt Q9H0H5); assay: blockers of MgcRacGAP-driven Rac1 GTP hydrolysis – biochemical, ADP Hunter fluorescence, primary and confirmatory, confirmation (AID 624330); type: functional
# T1 sequence (Q9H0H5 whole entry): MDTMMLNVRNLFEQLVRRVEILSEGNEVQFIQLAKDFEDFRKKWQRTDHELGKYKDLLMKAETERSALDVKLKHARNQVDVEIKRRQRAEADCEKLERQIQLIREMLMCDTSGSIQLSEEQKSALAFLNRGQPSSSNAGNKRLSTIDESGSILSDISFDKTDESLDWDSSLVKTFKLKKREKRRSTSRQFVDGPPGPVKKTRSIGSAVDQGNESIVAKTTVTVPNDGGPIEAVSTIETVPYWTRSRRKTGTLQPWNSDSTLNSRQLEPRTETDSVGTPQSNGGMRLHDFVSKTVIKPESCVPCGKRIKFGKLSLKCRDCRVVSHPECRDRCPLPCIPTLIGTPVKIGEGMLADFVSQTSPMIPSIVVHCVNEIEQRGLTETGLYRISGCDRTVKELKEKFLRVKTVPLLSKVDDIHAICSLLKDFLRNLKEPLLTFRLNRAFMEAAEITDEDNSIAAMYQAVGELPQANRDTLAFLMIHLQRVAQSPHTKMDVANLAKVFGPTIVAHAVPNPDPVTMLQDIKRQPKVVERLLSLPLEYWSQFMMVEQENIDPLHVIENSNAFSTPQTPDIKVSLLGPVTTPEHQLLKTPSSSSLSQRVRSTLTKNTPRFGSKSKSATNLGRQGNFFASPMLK
# Sequence of Cytochrome P450 2C9 (P11712 whole entry): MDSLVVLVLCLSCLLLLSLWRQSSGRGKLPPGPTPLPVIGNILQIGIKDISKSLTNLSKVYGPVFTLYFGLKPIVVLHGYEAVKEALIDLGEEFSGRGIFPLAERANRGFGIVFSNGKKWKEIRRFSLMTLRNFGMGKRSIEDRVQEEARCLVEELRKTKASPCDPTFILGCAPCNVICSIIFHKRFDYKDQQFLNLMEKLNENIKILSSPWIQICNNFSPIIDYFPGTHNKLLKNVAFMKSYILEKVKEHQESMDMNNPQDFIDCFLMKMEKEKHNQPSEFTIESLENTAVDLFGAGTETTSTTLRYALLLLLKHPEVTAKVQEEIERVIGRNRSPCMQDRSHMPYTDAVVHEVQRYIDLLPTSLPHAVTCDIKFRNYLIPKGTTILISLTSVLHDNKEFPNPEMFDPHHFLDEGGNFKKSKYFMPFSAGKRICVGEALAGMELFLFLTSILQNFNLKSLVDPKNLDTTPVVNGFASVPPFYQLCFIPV
structure (smiles),measurement,setting,value
CCCCC1CC(/C(C)=N/NC(N)=O)OC1=O (stereo unspecified),AC50,Cytochrome P450 2C9,20 µM (inconclusive)
O=C(CSc1nc(C2CC2)nc2ccccc12)N1c2ccccc2Sc2ccccc21,EC50,[1],> 60 µM (not active)
same,EC50,[2],4.43 µM (active)
OCCN=c1cc(-c2ccccc2)oc2ccc(Cl)cc12,AC50,Cytochrome P450 3A4,10 µM (inconclusive)
Nc1ccc(C(=O)N/N=C/c2ccccc2)cc1,AC50,Cytochrome P450 3A4,15.8 µM (inconclusive)
same,AC50,Cytochrome P450 2C9,0.282 µM (inconclusive)
same,AC50,Cytochrome P450 2C19; read-out: AC50,15.8 µM (inconclusive)
CC1(C)C([N+](=O)[O-])C(c2ccc(Cl)cc2)NC(c2ccc(Cl)cc2)C1[N+](=O)[O-] (stereo unspecified),EC50,[1],> 60 µM (inconclusive)
same,EC50,[2],2 µM (active)
COc1cc(C(=O)NC(=S)Nc2ccc(Cl)c(C(=O)O)c2)cc(OC)c1OC,AC50,Cytochrome P450 2C9,28.2 µM (inconclusive)
COc1ccc(C(=O)CCN(C)C)c2ccccc12,AC50,Cytochrome P450 3A4,0.316 µM (inconclusive)
Cc1ccc2[nH]c(SCC(=O)c3ccc(Cl)s3)nc2c1,EC50,[3],> 150 µM (not active)
same,EC50,Streptococcus,> 150 µM (not active)
Cn1c(=O)c2c3c(sc2n2cnnc12)CCC3,AC50,Cytochrome P450 2C19,inconclusive
COc1cccc(CNCCc2cccc(F)c2)c1OC,EC50,[1],> 60 µM (not active)
same,EC50,[2],0.828 µM (active)
CN[C@@H](c1ccncc1)[C@@H](NC)c1ccncc1,AC50,Cytochrome P450 2C19; read-out: AC50,3.16 µM (inconclusive)
O=S(=O)(c1ccccc1)N1CN2CN(C1)CN(S(=O)(=O)c1ccccc1)C2,AC50,Cytochrome P450 2C9,0.631 µM (inconclusive)
O=C(N/N=C/c1c(Nc2cccc(C(F)(F)F)c2)nc2ccccn2c1=O)c1ccccc1,AC50,Cytochrome P450 2C9,12.6 µM (inconclusive)
Cc1ccc2nc(N(CCN(C)C)C(=O)c3ccc4c(c3)OCCO4)sc2c1,EC50,[1],> 60 µM (not active)
same,EC50,[2],0.104 µM (active)
c1ccc(Cn2c3ccccc3c3nnc(SCCN4CCCCC4)nc32)cc1,EC50,[1],> 60 µM (not active)
same,EC50,[2],0.489 µM (active)
Cn1c(-c2nnn(-c3ccc(F)cc3)n2)cc2ccccc21,EC50,H4,36.6 µM (active)
COc1cc(/C=C2\SC(=S)N(NC(=O)c3ccc(O)cc3)C2=O)ccc1O,IC50,[4],59 µM (active)
COc1ccc(N2CCN(C(CNS(=O)(=O)c3cccs3)c3cccnc3)CC2)cc1 (stereo unspecified),IC50,[4],120 µM (active)
CCn1c(SCc2ccc(C(=O)Nc3nccs3)cc2)nnc1-c1ccc(NC(C)=O)cc1,AC50,Cytochrome P450 3A4,1.12 µM (inconclusive)
O=C(c1ccc(Cl)c(S(=O)(=O)N2CCCCCC2)c1)N1CCN(c2ccc(O)cc2)CC1,IC50,[4],33.7 µM (active)
CCCC[C@@H]1CN2[C@H](c3ccc(Br)cc3)[C@@H](C)CC[C@H]2C(=O)O1,AC50,Cytochrome P450 3A4,5.01 µM (inconclusive)
Cc1ccc(S(=O)(=O)c2nnn3c2nc(NC2CCN(Cc4ccccc4)CC2)c2ccccc23)cc1C,EC50,[1],> 30 µM (not active)
same,EC50,[2],1.24 µM (active)
Nc1c(C(=O)Nc2ccccc2)c2nc3ccccc3nc2n1-c1ccc(O)cc1,EC50,[1],15.9 µM (active)
same,EC50,[2],2.07 µM (active)
Brc1ccccc1OCCCCCN1CCOCC1,IC50,[4],146 µM (active)
O=C(CNc1ccc2c(c1)OCO2)N/N=C\c1ccccc1Cl,IC50,[4],114 µM (active)
Cc1cccc(C(=O)c2ccccc2C(=O)O)c1O,AC50,Cytochrome P450 3A4,25.1 µM (inconclusive)
same,AC50,Cytochrome P450 2C9,0.1 µM (inconclusive)
COc1ccc2[nH]c3c(c2c1)CCN1C(=O)N([C@@H](C)C(=O)NC2CCN(Cc4ccccc4)CC2)C(=O)[C@]31C,EC50,[1],> 60 µM (not active)
same,EC50,[2],0.122 µM (active)
CCOc1ccc(N2C(=O)/C(=C/c3cc(OC)c(OC)c(OC)c3)N(CC(=O)OC)C2=S)cc1,AC50,Cytochrome P450 3A4,15.8 µM (inconclusive)
same,AC50,Cytochrome P450 2C9,1.41 µM (inconclusive)
COc1ccc(O/C(=N\S(=O)(=O)c2ccccc2)c2ccccc2)cc1,IC50,[4],45.5 µM (active)
Cn1cccc1/C=N/N1CCN(Cc2ccccc2Cl)CC1,IC50,[4],82.1 µM (active)
COc1ccc(Cc2nc3cc(S(=O)(=O)N4CCOCC4)ccc3[nH]2)cc1OC,AC50,Cytochrome P450 2C19; read-out: AC50,25.1 µM (inconclusive)
c1ccc(CNc2ncncc2-c2ccc3c(c2)OCO3)cc1,AC50,Cytochrome P450 2C9,0.316 µM (inconclusive)
O=c1c(-c2cccc(F)c2)nc2cncnc2n1-c1ccccc1,AC50,Cytochrome P450 3A4,20 µM (inconclusive)
